Laboratory results reported in patent US8993542B2, “Methods of treating viral infections” (priority 2008, dated 2015).

Key:
HIV-1IIIB [1] = assay: Association of compound with concentrated virus (LC/MS/MS of viral pellets); type: binding; settings: 500 nM, 2 hours
Method: To examine the potential of CMX157 to associate directly with virus, concentrated HIV-1IIIB (approximately 9.7×10^10 virus particles) is treated with 500 nM CMX157 or TFV for 2 hours. Following incubation, virus is pelleted to remove unbound compound, lysed with 70% ice cold methanol and centrifuged. Supernatants are analyzed in triplicate using LC/MS/MS (liquid chromatography/mass spectrometry). TFV, TFV mono- and diphosphate are separated by gradient, reverse phase, ion-paring chromatography and detected by positive ion electrospray. The levels of CMX157 associated with the viral pellets (≈37,000 molecules/virion) are much higher than the levels of TFV associated with viral pellets (≈100 molecules/virion).

HIV-1IIIB [2] = assay: Two-drug combination antiviral assay in CEM cells (CPE), MacSynergy II; type: cell-based; settings: in combination with CMX157, CEM-SS cells, 95% confidence
HIV-1IIIB [3] = assay: Resistance selection by serial passage in CEM-SS cells; type: cell-based
Method: In vitro studies designed to select CMX157 resistant mutants use wild-type HIV-1 as the primary inoculum and TFV as a positive control. These studies are conducted by serial passage of HIV-1IIIB and HIV-1RF in CEM-SS cells using increasing concentrations of TFV or CMX157. Drug levels are increased following detection of viral growth at each passage using procedures known to one skilled in the art. Upon completion of each passage, the reverse transcriptase coding region of the viral genome is sequenced to identify any possible resistance-associated mutations that may have emerged within the virus pool.

[4] = Passage 1, Tenofovir 10 μM (2× IC50)
[5] = Passage 2, Tenofovir 20 μM (4× IC50)
[6] = Passage 3, Tenofovir 30 μM (6× IC50)
[7] = Passage 4, Tenofovir 40 μM (8× IC50)
[8] = Passage 5, Tenofovir 40 μM (8× IC50)
[9] = Passage 6, Tenofovir 40 μM (8× IC50)
[10] = Passage 7, Tenofovir 45 μM (9× IC50)
[11] = Passage 8, Tenofovir 50 μM (10× IC50)
[12] = Passage 9, Tenofovir 55 μM (11× IC50)
[13] = Passage 10, Tenofovir 60 μM (12× IC50)

For `C[C@H](Cn1cnc2c(N)ncnc21)OCP(=O)(O)O` [TFV, (R)-9-(2-phosphonylmethoxypropyl)adenine], the “levels associated with the viral pellets” value (HIV-1IIIB [1]) was “≈ 100 molecules/virion”, the “Antagonism Volume, Result 1” value (HIV-1IIIB [2]) was −0.53 nM^2 %, μM^2 % or nMμM % and the “Antagonism Volume, Result 2” value (HIV-1IIIB [2]) was 0 nM^2 %, μM^2 % or nMμM %. For the same compound, the “Antagonism Volume, Result 3” value (HIV-1IIIB [2]) was 0 nM^2 %, μM^2 % or nMμM %, the “Mean Antagonism Volume (n = 3)” value (HIV-1IIIB [2]) was −0.18 nM^2 %, μM^2 % or nMμM % and the “Mean Synergy Volume (n = 3)” value (HIV-1IIIB [2]) was 28.4 nM^2 %, μM^2 % or nMμM %. For the same compound, the “Synergy Volume, Result 1” value (HIV-1IIIB [2]) was 17.6 nM^2 %, μM^2 % or nMμM %, the “Synergy Volume, Result 2” value (HIV-1IIIB [2]) was 37.2 nM^2 %, μM^2 % or nMμM % and the “Synergy Volume, Result 3” value (HIV-1IIIB [2]) was 30.3 nM^2 %, μM^2 % or nMμM %. For the same compound, the “passage by which K65R was selected” value (HIV-1IIIB [3]) was no more than 8 passage, the “Comments (virus replication)” value (HIV-1IIIB [3]; [4]) was “Low-level virus replication observed” and the “Day of Peak Virus Production” value (HIV-1IIIB [3]; [4]) was “Day 6”. For the same compound, the “Peak RT activity” value (HIV-1IIIB [3]; [4]) was “(3,525 cpm)”, the “Comments (virus replication)” value (HIV-1IIIB [3]; [5]) was “Low-level virus replication observed” and the “Day of Peak Virus Production” value (HIV-1IIIB [3]; [5]) was “Day 7”. The “Peak RT activity” value (HIV-1IIIB [3]; [5]) was “(2,016 cpm)”, the “Comments (virus replication)” value (HIV-1IIIB [3]; [6]) was “Low-level virus replication observed” and the “Day of Peak Virus Production” value (HIV-1IIIB [3]; [6]) was “Day 14”. For the same compound, the “Peak RT activity” value (HIV-1IIIB [3]; [6]) was “(2,062 cpm)”, the “Comments (virus replication)” value (HIV-1IIIB [3]; [7]) was “Low-level virus replication observed” and the “Day of Peak Virus Production” value (HIV-1IIIB [3]; [7]) was “Day 6”. For the same compound, the “Peak RT activity” value (HIV-1IIIB [3]; [7]) was “(3,109 cpm)”, the “Comments (virus replication)” value (HIV-1IIIB [3]; [8]) was “Low-level virus replication observed;” and the “Day of Peak Virus Production” value (HIV-1IIIB [3]; [8]) was “Day 14”. The “Peak RT activity” value (HIV-1IIIB [3]; [8]) was “(1,788 cpm)”, the “Comments (virus replication)” value (HIV-1IIIB [3]; [9]) was “Robust virus replication observed;” and the “Day of Peak Virus Production” value (HIV-1IIIB [3]; [9]) was “Day 19”. For the same compound, the “Peak RT activity” value (HIV-1IIIB [3]; [9]) was “(23,508)”, the “Comments (virus replication)” value (HIV-1IIIB [3]; [10]) was “Robust virus replication observed; minor” and the “Day of Peak Virus Production” value (HIV-1IIIB [3]; [10]) was “Day 7”. The “Peak RT activity” value (HIV-1IIIB [3]; [10]) was “(24,408 cpm)”, the “Comments (virus replication)” value (HIV-1IIIB [3]; [11]) was “Robust virus replication observed; E404D” and the “Day of Peak Virus Production” value (HIV-1IIIB [3]; [11]) was “Day 9”. For the same compound, the “Peak RT activity” value (HIV-1IIIB [3]; [11]) was “(57,455 cpm)”, the “Comments (virus replication)” value (HIV-1IIIB [3]; [12]) was “Robust virus replication observed;” and the “Day of Peak Virus Production” value (HIV-1IIIB [3]; [12]) was “Day 11”. The “Peak RT activity” value (HIV-1IIIB [3]; [12]) was “(25,458 cpm)”, the “Comments (virus replication)” value (HIV-1IIIB [3]; [13]) was “Robust virus replication observed;” and the “Day of Peak Virus Production” value (HIV-1IIIB [3]; [13]) was “Day 7”. For the same compound, the “Peak RT activity” value (HIV-1IIIB [3]; [13]) was “(31,549 cpm)”.
